# Measurements as given in patent publication US12054495B2, “Substituted macrocyclic compounds and related methods of treatment” (Alkermes, Inc., priority 2019, dated 2024).
# Tested on: human hepatocytes
# Assay: Hepatocytes stability assay (human hepatocytes)
# Type: in vitro ADME
# Conditions: scaled hepatic clearance divided by liver blood flow, fu assumed unity
# Procedure: (§1) In vitro metabolic stability was assessed using cryopreserved hepatocytes from male Sprague Dawley rats and a pool of 50 mixed gender humans (BioIVT, Baltimore, MD). The incubation mixtures were prepared by mixing 250 μL of pre-warmed KHB (Krebs-Henseleit buffer) containing 2×10^6 cell/mL of hepatocytes with 250 μL of pre-warmed KHB buffer containing 2 μM of test compounds in a 48-well plate, giving a final concentration of 1 μM test compound (0.1% DMSO) and 1×10^6 cell/mL of hepatocytes. The reaction mixture was incubated at 37 degrees C. A 50 μL aliquot of incubation mixture was taken at time points (0, 15, 30, 60, 120 and 240 minutes) and transferred into a 96-well plate containing 300 μL ice-cold acetonitrile (containing 30 ng/mL of labetalol and 10 ng/mL of Naltrexone-d3 as internal standards) and immediately placed in ice to terminate the reaction. Samples were centrifuged, and supernatants were transferred into 96-well plates for liquid chromatography with tandem mass spectrometry (LC-MS/MS) analysis to monitor the depletion of the test compound.
# (§2) Data was calculated as percent remaining by assuming zero-minute time point peak area ratio (analyte/IS) as 100% and dividing remaining time point peak area ratios by zero-minute time point peak area ratio. Data were fitted to a first-order decay model to determine half-life. From a plot of log (ln) peak area against time, the slope of the line was determined. Subsequently, half-life (T1/2) and intrinsic clearance (CLint) were calculated using the equations below: Elimination rate constant (k)=(−slope) Half-life (T1/2)min=0.693/k Intrinsic Clearance (CLint) (mL/min/million cells)=(V×0.693)/T1/2 V=incubation volume mL/number of cells The in vitro T1/2 was converted to in vitro intrinsic clearance (CLint,hep) in units of mL/min/kg using the formula shown below:
# (§3) [formula] The in vitro intrinsic clearance (CLint,hep) was scaled to in vivo hepatic clearance (CL,hep) using the following equation which was adapted from a well-stirred model.
# (§4) [formula] where Q is the liver blood flow and fu is the fraction unbound (assumed to be unity in this case). All parameters used in the calculation are shown below (Table 4).
# (§5) The extraction ratio (ER) was calculated by dividing the hepatic clearance of a compound to the liver blood flow. The data reported in Table 5 were obtained according to the human hepatocytes stability assay described above.
row,Extraction Ratio (ER),SMILES
1,0.90,CS(=O)(=O)N[C@H]1CCCN2CCCOc3ccccc3C3CCC(CC3)OCC12 (stereo partly drawn) [Compound 5]
2,0.90,CS(=O)(=O)N[C@H]1CCCN2CC(F)(F)Oc3ccccc3C3CCC(CC3)OCC12 (stereo partly drawn) [Compound 41]

# Tested on: not listed separately
# Assay: Hepatocytes stability assay (human hepatocytes)
# Type: in vitro ADME
# Conditions: both sexes, cryopreserved hepatocytes, 1 μM test compound, 1×10^6 cell/mL, 37 degrees C, read-out: CLint (μL/min/million cells)
# Procedure: as §1, §2, §3, §4, §5
row,hepatocyte CLint at 1 μM,SMILES
1,63 µL/min/1e6 cells,CS(=O)(=O)N[C@H]1CCCN2CCCOc3ccccc3C3CCC(CC3)OCC12 (stereo partly drawn) [Compound 5]
2,60 µL/min/1e6 cells,CS(=O)(=O)N[C@H]1CCCN2CC(F)(F)Oc3ccccc3C3CCC(CC3)OCC12 (stereo partly drawn) [Compound 41]

# Target: T1, human orexin-2 receptor (OX2R) (Homo sapiens, UniProt O43614)
# T1 construct: expressed in transfected cells
# T1 sequence (O43614 1-444): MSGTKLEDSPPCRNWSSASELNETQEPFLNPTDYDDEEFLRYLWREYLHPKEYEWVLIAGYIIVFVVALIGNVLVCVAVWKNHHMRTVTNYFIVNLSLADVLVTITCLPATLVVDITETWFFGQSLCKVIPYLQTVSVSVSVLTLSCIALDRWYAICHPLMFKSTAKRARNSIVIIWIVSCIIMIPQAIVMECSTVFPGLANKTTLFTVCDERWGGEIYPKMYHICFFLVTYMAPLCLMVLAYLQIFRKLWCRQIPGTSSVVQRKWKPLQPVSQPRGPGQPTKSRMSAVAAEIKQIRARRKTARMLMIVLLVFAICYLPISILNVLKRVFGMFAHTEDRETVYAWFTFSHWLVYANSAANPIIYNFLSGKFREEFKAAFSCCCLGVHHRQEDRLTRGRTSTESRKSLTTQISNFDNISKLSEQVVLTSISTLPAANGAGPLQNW
# Assay: Human OX2R IP1 assay
# Type: cell-based
# Conditions: T-Rex CHO cells stably overexpressing human OX2R, IP1 accumulation, 1 hr at 37 degrees C; mean EC50; ∧ = racemic mixture
# Procedure: T-Rex CHO cells stably overexpressing the human orexin-2 receptor (OX2R) were induced overnight with 1 μg/mL of doxycycline in a T225 flask. 24 hours post induction, cells were lifted with accutase and plated into a 384-well proxy plate at 30,000 cells/well. Cells were then treated with different test compounds in 1× stimulation buffer containing 10 mM Hepes, 1 mM CaCl2), 0.5 mM MgCl2, 4.2 mM KCl, 146 mM NaCl, 5.5 mM glucose, and 50 mM LiCl, pH 7.4, for 1 hr at 37 degrees C. Following incubation, the reaction was terminated by the addition of detection mix, which is composed of IP1-d2 and anti-IP1-cryptate diluted in lysis buffer as well as 1× stimulation buffer. The plates were allowed to incubate for 1 hour at room temperature and were then read in the EnVision® multimode plate reader, measuring inositol phosphate levels.
# Cisbio IP1 is a cell-based functional assay quantifying the accumulation of inositol monophosphate (IP), a metabolite released as a result of orexin 2 receptor activation through the phospholipase C-Gq signaling pathway. This is a competitive immunoassay in which the IP1 produced by the cells upon receptor activation competes with the IP1 analog coupled to the d2 fluorophore (acceptor) for binding to an anti-IP1 monoclonal antibody labeled with Eu cryptate (donor). The measured HTRF-FRET based signal is inversely proportional to the IP1 concentration produced.
# The EC50 values reported in Table 2 were obtained according to the human OX2R IP1 assay described above. Data are the mean EC50 values ±S.E.M. The compound methyl (2R,3S)-3-((methylsulfonyl)amino)-2-(((cis-4-phenylcyclohexyl)oxy)methyl)-piperidine-1-carboxylate is a reference compound which is disclosed in Example 5 of PCT publication no. WO2017/135306.
row,EC50,SMILES
1,< 100 nM,CS(=O)(=O)N[C@H]1CCCN2C(=O)CCOc3ccccc3[C@H]3CC[C@H](CC3)OC[C@@H]12 [Compound 1]
2,< 100 nM,CS(=O)(=O)N[C@H]1CCCN2C(=O)COc3ccccc3[C@H]3CC[C@H](CC3)OC[C@@H]12 [Compound 2]
3,> 1000 nM,CS(=O)(=O)N[C@H]1CCCN2C(=O)CCCCOc3ccccc3[C@H]3CC[C@H](CC3)OC[C@@H]12 [Compound 3]
4,< 100 nM,CS(=O)(=O)N[C@H]1CCCN2C(=O)CCCOc3ccccc3[C@H]3CC[C@H](CC3)OC[C@@H]12 [Compound 4]
5,> 1000 nM,CS(=O)(=O)N[C@H]1CCCN2CCCOc3ccccc3[C@H]3CC[C@H](CC3)OC[C@@H]12 [Compound 5]
6,< 100 nM,CS(=O)(=O)N[C@H]1CCCN2CCOc3ccccc3[C@H]3CC[C@H](CC3)OC[C@@H]12 [Compound 6]
7,< 100 nM,CS(=O)(=O)N[C@H]1CCN2C(=O)COc3ccccc3[C@H]3CC[C@H](CC3)OC[C@@H]12 [Compound 7]
8,100 to 1000 nM,CS(=O)(=O)N[C@H]1CCCN2C(=O)CCc3ccccc3[C@H]3CC[C@H](CC3)OC[C@@H]12 [Compound 10]
9,< 100 nM,CS(=O)(=O)N[C@H]1CCCN2C(=O)COc3c(F)cccc3[C@H]3CC[C@H](CC3)OC[C@@H]12 [Compound 11]
10,< 100 nM,CS(=O)(=O)N[C@H]1CCCN2C(=O)COc3c(F)cc(F)cc3[C@H]3CC[C@H](CC3)OC[C@@H]12 [Compound 12]
11,100 to 1000 nM,CS(=O)(=O)N[C@H]1CCCN2CCOc3c(F)cccc3[C@H]3CC[C@H](CC3)OC[C@@H]12 [Compound 13]
12,100 to 1000 nM,CS(=O)(=O)N[C@H]1CCN2C(=O)COc3ncccc3[C@H]3CC[C@H](CC3)OC[C@@H]12 [Compound 18]
13,< 100 nM,CC1(C)Oc2ccccc2[C@H]2CC[C@H](CC2)OC[C@H]2[C@@H](NS(C)(=O)=O)CCCN2C1=O [Compound 36]
14,> 1000 nM,CS(=O)(=O)N[C@H]1CCN2CCOc3ccccc3[C@H]3CC[C@H](CC3)OC[C@@H]12 [Compound 39]
15,< 100 nM,CS(=O)(=O)N[C@H]1CCCN2C(=O)C(F)(F)Oc3ccccc3[C@H]3CC[C@H](CC3)OC[C@@H]12 [Compound 40]
16,> 1000 nM,CS(=O)(=O)N[C@H]1CCCN2CC(F)(F)Oc3ccccc3[C@H]3CC[C@H](CC3)OC[C@@H]12 [Compound 41]

row,EC50,SMILES
1,< 100 nM,CS(=O)(=O)N[C@H]1CCN2C(=O)COc3c(F)cccc3[C@H]3CC[C@H](CC3)OC[C@@H]12 [Compound 42]
2,< 100 nM,CS(=O)(=O)N[C@H]1CCN2C(=O)COc3c(F)cc(F)cc3[C@H]3CC[C@H](CC3)OC[C@@H]12 [Compound 43]
3,100 to 1000 nM,CC1(C)CN2CCC[C@H](NS(C)(=O)=O)[C@@H]2CO[C@H]2CC[C@H](CC2)c2ccccc2O1 [Compound 44]
4,< 100 nM,CS(=O)(=O)N[C@H]1CCCN2C(=O)COc3ncccc3[C@H]3CC[C@H](CC3)OC[C@@H]12 [Compound 46]
5,< 100 nM,CS(=O)(=O)N[C@H]1CCCN2C(=O)COc3ccc(Cl)cc3[C@H]3CC[C@H](CC3)OC[C@@H]12 [Compound 51]
6,< 100 nM,CS(=O)(=O)N[C@H]1CCCN2C(=O)C(F)(F)Oc3c(F)cc(F)cc3[C@H]3CC[C@H](CC3)OC[C@@H]12 [Compound 52]
7,< 100 nM,CS(=O)(=O)N[C@H]1CCN2C(=O)C(F)(F)Oc3ccccc3[C@H]3CC[C@H](CC3)OC[C@@H]12 [Compound 53]
8,< 100 nM,CS(=O)(=O)N[C@H]1CCN2C(=O)C(F)(F)Oc3c(F)cc(F)cc3[C@H]3CC[C@H](CC3)OC[C@@H]12 [Compound 54]
9,< 100 nM,CS(=O)(=O)N[C@H]1CCCN2C(=O)COc3nccnc3[C@H]3CC[C@H](CC3)OC[C@@H]12 [Compound 55]
10,100 to 1000 nM,CS(=O)(=O)N[C@H]1CCCN2C(=O)COc3nnccc3[C@H]3CC[C@H](CC3)OC[C@@H]12 [Compound 56]
11,< 100 nM,CS(=O)(=O)N[C@H]1CCCN2C(=O)COc3ccc(Br)cc3[C@H]3CC[C@H](CC3)OC[C@@H]12 [Compound 57]
12,100 to 1000 nM,CS(=O)(=O)N[C@H]1CCCN2CCOc3c(F)cc(F)cc3[C@H]3CC[C@H](CC3)OC[C@@H]12 [Compound 58]
13,100 to 1000 nM,CS(=O)(=O)N[C@H]1CCCN2CC(F)(F)Oc3c(F)cc(F)cc3[C@H]3CC[C@H](CC3)OC[C@@H]12 [Compound 59]
14,> 1000 nM,CS(=O)(=O)N[C@H]1CCCN2CCOc3ccc(Cl)cc3[C@H]3CC[C@H](CC3)OC[C@@H]12 [Compound 61]
15,< 100 nM,CS(=O)(=O)N[C@H]1CCCN2C(=O)COc3ncc(F)cc3[C@H]3CC[C@H](CC3)OC[C@@H]12 [Compound 64]
16,100 to 1000 nM,CS(=O)(=O)N[C@H]1CCCN2CCOc3ncccc3[C@H]3CC[C@H](CC3)OC[C@@H]12 [Compound 65]
